According to US20230348376A1 (TEIJIN PHARMA LIMITED, priority 2020, published 2023):

Target: T1, human VDR (Homo sapiens, UniProt P11473)
T1 sequence (P11473 1-427): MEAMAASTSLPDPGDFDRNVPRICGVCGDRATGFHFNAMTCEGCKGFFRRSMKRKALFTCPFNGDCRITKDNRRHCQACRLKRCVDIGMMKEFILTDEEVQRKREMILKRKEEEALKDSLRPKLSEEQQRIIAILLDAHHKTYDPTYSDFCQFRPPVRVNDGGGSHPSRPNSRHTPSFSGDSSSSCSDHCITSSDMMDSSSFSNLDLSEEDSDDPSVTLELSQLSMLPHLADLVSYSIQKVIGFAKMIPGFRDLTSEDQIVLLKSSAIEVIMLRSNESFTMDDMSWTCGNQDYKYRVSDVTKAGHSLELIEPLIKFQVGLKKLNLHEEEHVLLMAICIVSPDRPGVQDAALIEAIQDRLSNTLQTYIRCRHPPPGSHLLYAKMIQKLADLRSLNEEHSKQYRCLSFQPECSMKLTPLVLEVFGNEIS
T1 sequence (P19793 1-462 partner): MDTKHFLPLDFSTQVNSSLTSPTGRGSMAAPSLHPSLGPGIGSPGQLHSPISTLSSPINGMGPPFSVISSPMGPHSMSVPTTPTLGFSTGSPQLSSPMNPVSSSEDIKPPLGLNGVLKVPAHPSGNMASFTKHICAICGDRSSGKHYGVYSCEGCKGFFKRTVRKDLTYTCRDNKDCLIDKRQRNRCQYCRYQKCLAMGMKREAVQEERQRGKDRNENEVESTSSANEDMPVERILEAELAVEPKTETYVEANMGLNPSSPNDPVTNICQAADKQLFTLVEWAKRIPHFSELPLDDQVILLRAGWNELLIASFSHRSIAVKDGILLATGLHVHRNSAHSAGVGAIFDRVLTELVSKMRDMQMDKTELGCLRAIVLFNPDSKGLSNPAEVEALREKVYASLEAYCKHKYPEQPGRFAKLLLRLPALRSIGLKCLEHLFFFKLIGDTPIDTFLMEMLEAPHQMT
Assay: Evaluation of VDR transcription activity in human osteoblasts (HOS cells), luciferase reporter
Settings: Activity (EC50, VDR transcription activity), HOS cells transfected with human VDR, human RXRα and DR3 luciferase reporter; 21 hours

Row | SMILES | EC50 [nM]
1 | C=C1/C(=C\C=C2/CCC[C@]3(C)[C@@H]([C@@H](C)CN4CCC(C)(O)CC4)CC[C@@H]23)C[C@@H](O)C[C@@H]1O [Compound C029, (1R,3S,Z)-5-(2-((1R,3aS,7aR,E)-1-((R)-1-(4-hydroxy-4-methylpiperidin-1-yl)propan-2-yl)-7a-methyloctahydro-4H-inden-4-ylidene)ethylidene)-4-methylenecyclohexane-1,3-diol] | 100 to 1000
2 | C[C@@H](CN1CCC(O)(C(F)F)CC1)[C@H]1CC[C@H]2/C(=C/C=C3C[C@@H](O)C[C@H](O)C3)CCC[C@]12C [Compound C025, (1R,3R)-5-(2-((1R,3aS,7aR,E)-1-((R)-1-(4-(difluoromethyl)-4-hydroxypiperidin-1-yl)propan-2-yl)-7a-methyloctahydro-4H-inden-4-ylidene)ethylidene)cyclohexane-1,3-diol] | 10 to 100
3 | C[C@H](CCN1CCOCC1(C)C)[C@H]1CC[C@H]2/C(=C/C=C3C[C@@H](O)C[C@H](O)C3)CCC[C@]12C [Compound D049, (1R,3R)-5-(2-((1R,3aS,7aR,E)-1-((R)-4-(3,3-dimethylmorpholino)butan-2-yl)-7a-methyloctahydro-4H-inden-4-ylidene)ethylidene)cyclohexane-1,3-diol] | 100 to 1000
4 | C=C1[C@H](O)CC(=C/C=C2\CCC[C@]3(C)[C@@H]([C@H](C)CN4CCCC(C)(OC)C4)CC[C@@H]23)C[C@H]1O (single isomer, unassigned) [Compound C047b] | 10 to 100
5 | C=C1[C@H](O)CC(=C/C=C2\CCC[C@]3(C)[C@@H]([C@H](C)CN4CCC(C(F)(F)F)CC4)CC[C@@H]23)C[C@H]1O [Compound C009, (1R,3R)-5-(2-((1R,3aS,7aR,E)-7a-methyl-1-((S)-1-(4-(trifluoromethyl)piperidin-1-yl)propan-2-yl)octahydro-4H-inden-4-ylidene)ethylidene)-2-methylenecyclohexane-1,3-diol] | 10 to 100
6 | C[C@@H](CN1CC[C@@H](F)C1)[C@H]1CC[C@H]2/C(=C/C=C3CC(O)C[C@H](O)C3)CCC[C@]12C (stereo in doubt) [Compound B098, (1R,3S)-5-(2-((1R,3aS,7aR,E)-1-((R)-1-((R)-3-fluoropyrrolidin-1-yl)propan-2-yl)-7a-methyloctahydro-4H-inden-4-ylidene)ethylidene)cyclohexane-1,3-diol] | 10 to 100
7 | CC[C@@H]1CCN(C[C@@H](C)[C@H]2CC[C@H]3/C(=C/C=C4C[C@@H](O)C[C@H](O)C4)CCC[C@]23C)C1 [Compound B008, (1R,3R)-5-(2-((1R,3aS,7aR,E)-1-((S)-1-((R)-3-ethylpyrrolidin-1-yl)propan-2-yl)-7a-methyloctahydro-4H-inden-4-ylidene)ethylidene)cyclohexane-1,3-diol] | 10 to 100
8 | C[C@H](CN1CC[C@H](F)C1)[C@H]1CC[C@H]2/C(=C/C=C3C[C@@H](O)C[C@H](O)C3)CCC[C@]12C [Compound B012, (1R,3R)-5-(2-((1R,3aS,7aR,E)-1-((S)-1-((S)-3-fluoropyrrolidin-1-yl)propan-2-yl)-7a-methyloctahydro-4H-inden-4-ylidene)ethylidene)cyclohexane-1,3-diol] | 100 to 1000
9 | C=C1[C@H](O)CC(=C/C=C2\CCC[C@]3(C)[C@@H]([C@@H](C)CN4CCC(C(F)(F)F)CC4)CC[C@@H]23)C[C@H]1O [Compound C060, (1R,3R)-5-(2-((1R,3aS,7aR,E)-7a-methyl-1-((R)-1-(4-(trifluoromethyl)piperidin-1-yl)propan-2-yl)octahydro-4H-inden-4-ylidene)ethylidene)-2-methylenecyclohexane-1,3-diol] | 1 to 10
10 | C=C1[C@H](O)CC(=C/C=C2\CCC[C@]3(C)[C@@H]([C@H](C)CN4CC(F)C4)CC[C@@H]23)C[C@H]1O [Compound A002, (1R,3R)-5-(2-((1R,3aS,7aR,E)-1-((S)-1-(3-fluoroazetidin-1-yl)propan-2-yl)-7a-methyloctahydro-4H-inden-4-ylidene)ethylidene)-2-methylenecyclohexane-1,3-diol] | 10 to 100

Other lines, results leading:

Row | EC50 [nM] | SMILES
11 | 1 to 10 | C=C1/C(=C\C=C2/CCC[C@]3(C)[C@@H]([C@H](C)CN4CCCC(O)(C(F)(F)F)C4)CC[C@@H]23)C[C@@H](O)C[C@@H]1O (single isomer, unassigned) [Compound C030b]
12 | 1 to 10 | C=C1/C(=C\C=C2/CCC[C@]3(C)[C@@H]([C@H](C)CN4CCOC(C(F)(F)F)C4)CC[C@@H]23)C[C@@H](O)[C@H](C)[C@@H]1O (single isomer, unassigned) [Compound D009a]
13 | 1 to 10 | C=C1/C(=C\C=C2/CCC[C@]3(C)[C@@H]([C@@H](C)CN4CCC(C(F)(F)F)CC4)CC[C@@H]23)C[C@@H](O)[C@H](C)[C@@H]1O [Compound C012, (1R,2S,3S,Z)-2-methyl-5-(2-((1R,3aS,7aR,E)-7a-methyl-1-((R)-1-(4-(trifluoromethyl)piperidin-1-yl)propan-2-yl)octahydro-4H-inden-4-ylidene)ethylidene)-4-methylenecyclohexane-1,3-diol]
14 | < 1 | C=C1/C(=C\C=C2/CCC[C@]3(C)[C@@H]([C@H](C)CN4CCCC(O)(C(F)F)C4)CC[C@@H]23)C[C@@H](O)C[C@@H]1O (single isomer, unassigned) [Compound C034a]
15 | 1 to 10 | C=C1[C@H](O)CC(=C/C=C2\CCC[C@]3(C)[C@@H]([C@H](C)CN4CC[C@@H](C)C4)CC[C@@H]23)C[C@H]1O [Compound B003, (1R,3R)-5-(2-((1R,3aS,7aR,E)-7a-methyl-1-((S)-1-((R)-3-methylpyrrolidin-1-yl)propan-2-yl)octahydro-4H-inden-4-ylidene)ethylidene)-2-methylenecyclohexane-1,3-diol]
16 | 1 to 10 | C=C1/C(=C\C=C2/CCC[C@]3(C)[C@@H]([C@@H](C)CN4CCC(C(F)(F)F)CC4)CC[C@@H]23)C[C@@H](O)C[C@@H]1O [Compound C011, (1R,3S,Z)-5-(2-((1R,3aS,7aR,E)-7a-methyl-1-((R)-1-(4-(trifluoromethyl)piperidin-1-yl)propan-2-yl)octahydro-4H-inden-4-ylidene)ethylidene)-4-methylenecyclohexane-1,3-diol]
17 | < 1 | C=C1[C@H](O)CC(=C/C=C2\CCC[C@]3(C)[C@@H]([C@H](C)CN4CCC(O)(C(F)(F)F)C4)CC[C@@H]23)C[C@H]1O (single isomer, unassigned) [Compound B046a]
18 | < 1 | C=C1/C(=C\C=C2/CCC[C@]3(C)[C@@H]([C@@H](C)CN4CCCC(O)(C(F)(F)F)C4)CC[C@@H]23)C[C@@H](O)C[C@@H]1O (single isomer, unassigned) [Compound C033a]
19 | 1 to 10 | C=C1C(O)CC(=C/C=C2\CCC[C@]3(C)[C@@H]([C@H](C)CCN4CCOC5(CC5)C4)CC[C@@H]23)C[C@H]1O (stereo in doubt) [Compound D026, (1R,3S)-5-(2-((1R,3aS,7aR,E)-1-((R)-4-(4-oxa-7-azaspiro[2.5]octan-7-yl)butan-2-yl)-7a-methyloctahydro-4H-inden-4-ylidene)ethylidene)-2-methylenecyclohexane-1,3-diol]
20 | 1 to 10 | C=C1[C@H](O)CC(=C/C=C2\CCC[C@]3(C)[C@@H]([C@H](C)CCN4CCO[C@H](C(F)F)C4)CC[C@@H]23)C[C@H]1O [Compound D033, (1R,3R)-5-(2-((1R,3aS,7aR,E)-1-((R)-4-((S)-2-(difluoromethyl)morpholino)butan-2-yl)-7a-methyloctahydro-4H-inden-4-ylidene)ethylidene)-2-methylenecyclohexane-1,3-diol]
21 | 1 to 10 | C=C1/C(=C\C=C2/CCC[C@]3(C)[C@@H]([C@H](C)CN4CCC(O)(C(F)F)CC4)CC[C@@H]23)C[C@@H](O)[C@H](C)[C@@H]1O [Compound C023, (1R,2S,3S,Z)-5-(2-((1R,3aS,7aR,E)-1-((S)-1-(4-(difluoromethyl)-4-hydroxypiperidin-1-yl)propan-2-yl)-7a-methyloctahydro-4H-inden-4-ylidene)ethylidene)-2-methyl-4-methylenecyclohexane-1,3-diol]
22 | 1 to 10 | C=C1[C@H](O)CC(=C/C=C2\CCC[C@]3(C)[C@@H]([C@@H](C)CN4CCC(C(C)(F)F)CC4)CC[C@@H]23)C[C@H]1O [Compound C057, (1R,3R)-5-(2-((1R,3aS,7aR,E)-1-((R)-1-(4-(1,1-difluoroethyl)piperidin-1-yl)propan-2-yl)-7a-methyloctahydro-4H-inden-4-ylidene)ethylidene)-2-methylenecyclohexane-1,3-diol]
23 | 1 to 10 | C=C1/C(=C\C=C2/CCC[C@]3(C)[C@@H]([C@@H](C)CN4CCC(C(F)F)CC4)CC[C@@H]23)C[C@@H](O)[C@H](C)[C@@H]1O [Compound C020, (1R,2S,3S,Z)-5-(2-((1R,3aS,7aR,E)-1-((R)-1-(4-(difluoromethyl)piperidin-1-yl)propan-2-yl)-7a-methyloctahydro-4H-inden-4-ylidene)ethylidene)-2-methyl-4-methylenecyclohexane-1,3-diol]
